Test results as given in patent publication US20130252930A1 (BIOMARIN PHARMACEUTICAL INC., priority 2010, published 2013).

These compounds were tested against T1, CYP17 (human testicular microsome) (Homo sapiens, UniProt P05093) (assay: CYP17 enzymatic assay (% inhibition at 1 nM) (Biological Example 12)). Settings: compound at 1 nM, read-out: Biological Example No. 12: CYP17 enzymatic assay % inhibition at 1 nM.
T1 construct: using microsomal fraction from human testis (Celsis Cat #S00110) as the enzyme source; tissue Celsis S00110; host or cells: human testis microsomal fraction
T1 sequence (P05093 1-508): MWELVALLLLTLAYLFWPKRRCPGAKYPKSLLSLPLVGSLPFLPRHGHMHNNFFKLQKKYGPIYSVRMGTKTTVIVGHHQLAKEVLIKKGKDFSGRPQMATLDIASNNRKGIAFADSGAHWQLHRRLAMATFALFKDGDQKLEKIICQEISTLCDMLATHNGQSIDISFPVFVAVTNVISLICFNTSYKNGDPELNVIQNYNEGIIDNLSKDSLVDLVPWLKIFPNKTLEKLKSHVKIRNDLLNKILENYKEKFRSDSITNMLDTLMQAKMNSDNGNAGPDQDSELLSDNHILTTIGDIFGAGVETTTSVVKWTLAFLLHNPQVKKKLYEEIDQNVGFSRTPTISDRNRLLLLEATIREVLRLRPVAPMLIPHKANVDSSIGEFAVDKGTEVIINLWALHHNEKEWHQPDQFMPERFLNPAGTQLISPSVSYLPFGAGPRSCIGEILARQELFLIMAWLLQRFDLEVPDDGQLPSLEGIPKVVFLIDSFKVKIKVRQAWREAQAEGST
Type: biochemical

**Q.** With `C[C@]12CC[C@H]3[C@@H](CC=C4C[C@@H](OC(=O)Nc5cccnc5)CC[C@@]43C)C1=CC=C2c1cccnc1` [Compound 204, (3S,10R,13S)-10,13-dimethyl-17-(pyridin-3-yl)-2,3,4,7,8,9,10,11,12,13-decahydro-1H-cyclopenta[a]phenanthren-3-yl pyridin-3-ylcarbamate] as the compound, how does the inhibition at 0.001 µM read?
**A.** 10 to 50%

**Q.** How did the inhibition at 0.001 µM turn out when `Cc1ccncc1C(=O)O[C@H]1CC[C@@]2(C)C(=CC[C@H]3C4=CC=C(c5cccnc5)[C@@]4(C)CC[C@@H]32)C1` [Compound 205, (3S,10R,13S)-10,13-dimethyl-17-(pyridin-3-yl)-2,3,4,7,8,9,10,11,12,13-decahydro-1H-cyclopenta[a]phenanthren-3-yl 4-methylnicotinate] was run?
**A.** 10 to 50%

**Q.** Which inhibition at 0.001 µM does the source give for `CC(CO)(CO)C(=O)O[C@H]1CC[C@@]2(C)C(=CC[C@H]3C4=CC=C(c5cccnc5)[C@@]4(C)CC[C@@H]32)C1` [Compound 206, (3S,10R,13S)-10,13-dimethyl-17-(pyridin-3-yl)-2,3,4,7,8,9,10,11,12,13-decahydro-1H-cyclopenta[a]phenanthren-3-yl 3-hydroxy-2-(hydroxymethyl)-2-methylpropanoate] here?
**A.** < 10%

**Q.** For `CN1CCC(C(=O)O[C@H]2CC[C@@]3(C)C(=CC[C@H]4C5=CC=C(c6cccnc6)[C@@]5(C)CC[C@@H]43)C2)CC1` [Compound 207, (3S,10R,13S)-10,13-dimethyl-17-(pyridin-3-yl)-2,3,4,7,8,9,10,11,12,13-decahydro-1H-cyclopenta[a]phenanthren-3-yl 1-methylpiperidine-4-carboxylate], which inhibition at 0.001 µM is on record?
**A.** 10 to 50%

Same assay, conditions: compound at 1 nM, read-out: CYP17 enzymatic assay % inhibition at 1 nM (Biological Example No. 12)

**Q.** For `CNC1C[C@H]2[C@@H]3CC=C(n4ccnc4)[C@@]3(C)CC[C@@H]2[C@@]2(C)CCC3CC312` (mixture of isomers) [Compound 248, (3aR,5aS)-6-(1H-imidazol-1-yl)-N,3a,5a-trimethyl-1,1a,2,3,3a,3b,4,5,5a,8,8a,8b,9,10-tetradecahydrocyclopenta[a]cyclopropa[2,3]cyclopenta[1,2-f]naphthalen-10-amine], which inhibition at 0.001 µM is on record?
**A.** < 10%

**Q.** How did the inhibition at 0.001 µM turn out when `CC(C)C(=O)O[C@H]1CC[C@@]2(C)C(=CCC3C4=CC=C(c5cccnc5)[C@@]4(C)CCC32)C1` (stereo partly drawn) [Compound 191, (3S,10R,13S)-10,13-dimethyl-17-(pyridin-3-yl)-2,3,4,7,8,9,10,11,12,13-decahydro-1H-cyclopenta[a]phenanthren-3-yl isobutyrate] was run?
**A.** 10 to 50%

**Q.** How did the inhibition at 0.001 µM turn out when `CC(C)(C)C(=O)O[C@H]1CC[C@@]2(C)C(=CCC3C4=CC=C(c5cccnc5)[C@@]4(C)CCC32)C1` (stereo partly drawn) [Compound 192, (3S,10R,13S)-10,13-dimethyl-17-(pyridin-3-yl)-2,3,4,7,8,9,10,11,12,13-decahydro-1H-cyclopenta[a]phenanthren-3-yl pivalate] was run?
**A.** 10 to 50%

**Q.** For `Cc1ccccc1C(=O)O[C@H]1CC[C@@]2(C)C(=CCC3C4=CC=C(c5cccnc5)[C@@]4(C)CCC32)C1` (stereo partly drawn) [Compound 195, (3S,10R,13S)-10,13-dimethyl-17-(pyridin-3-yl)-2,3,4,7,8,9,10,11,12,13-decahydro-1H-cyclopenta[a]phenanthren-3-yl 2-methylbenzoate], which inhibition at 0.001 µM is on record?
**A.** 10 to 50%

**Q.** `CC(C)(C)c1ccccc1C(=O)O[C@H]1CC[C@@]2(C)C(=CC[C@H]3C4=CC=C(c5cccnc5)[C@@]4(C)CC[C@@H]32)C1` [Compound 201, (3S,10R,13S)-10,13-dimethyl-17-(pyridin-3-yl)-2,3,4,7,8,9,10,11,12,13-decahydro-1H-cyclopenta[a]phenanthren-3-yl 2-(tert-butyl)benzoate] was tested. Which inhibition at 0.001 µM did it give?
**A.** < 10%

**Q.** How did the inhibition at 0.001 µM turn out when `CCNC(=O)O[C@H]1CC[C@@]2(C)C(=CC[C@H]3C4=CC=C(c5cccnc5)[C@@]4(C)CC[C@@H]32)C1` [Compound 202, (3S,10R,13S)-10,13-dimethyl-17-(pyridin-3-yl)-2,3,4,7,8,9,10,11,12,13-decahydro-1H-cyclopenta[a]phenanthren-3-yl ethylcarbamate] was run?
**A.** < 10%

**Q.** For `CC(C)(C)NC(=O)O[C@H]1CC[C@@]2(C)C(=CC[C@H]3C4=CC=C(c5cccnc5)[C@@]4(C)CC[C@@H]32)C1` [Compound 203, (3S,10R,13S)-10,13-dimethyl-17-(pyridin-3-yl)-2,3,4,7,8,9,10,11,12,13-decahydro-1H-cyclopenta[a]phenanthren-3-yl tert-butylcarbamate], which inhibition at 0.001 µM is on record?
**A.** 10 to 50%

**Q.** With `CNC1CC[C@@]2(C)C(CCC3C2CC[C@]2(C)C(c4cncc(C)c4)=CCC32)C1` (stereo partly drawn) [Compound 210, (10S,13S)-N,10,13-trimethyl-17-(5-methylpyridin-3-yl)-2,3,4,5,6,7,8,9,10,11,12,13,14,15-tetradecahydro-1H-cyclopenta[a]phenanthren-3-amine] as the compound, how does the inhibition at 0.001 µM read?
**A.** 10 to 50%

**Q.** `CNC1CC[C@@]2(C)C(CC[C@@H]3[C@@H]2CC[C@]2(C)C(c4cccnc4)=CC[C@@H]32)C1` (stereo partly drawn) [Compound 211, (10S,13S)-N,10,13-trimethyl-17-(pyridin-3-yl)-2,3,4,5,6,7,8,9,10,11,12,13,14,15-tetradecahydro-1H-cyclopenta[a]phenanthren-3-amine] was tested. Which inhibition at 0.001 µM did it give?
**A.** 10 to 50%

**Q.** With `CC(=O)N(C)C1CC[C@@]2(C)C(CCC3C2CC[C@]2(C)C(c4cncc(C)c4)=CCC32)C1` (stereo partly drawn) [Compound 212, N-((10S,13S)-10,13-dimethyl-17-(5-methylpyridin-3-yl)-2,3,4,5,6,7,8,9,10,11,12,13,14,15-tetradecahydro-1H-cyclopenta[a]phenanthren-3-yl)-N-methylacetamide] as the compound, how does the inhibition at 0.001 µM read?
**A.** 10 to 50%

**Q.** How did the inhibition at 0.001 µM turn out when `CC(=O)N(C)C1CC[C@@]2(C)C(CCC3C2CC[C@]2(C)C(c4cccnc4)=CCC32)C1` (stereo partly drawn) [Compound 213, N-((10S,13S)-10,13-dimethyl-17-(pyridin-3-yl)-2,3,4,5,6,7,8,9,10,11,12,13,14,15-tetradecahydro-1H-cyclopenta[a]phenanthren-3-yl)-N-methylacetamide] was run?
**A.** 10 to 50%

**Q.** For `C[C@]12CC[C@@H](N)CC1CC[C@@H]1[C@@H]2CC[C@]2(C)C(c3cccnc3)=CC[C@@H]12` (stereo partly drawn) [Compound 214, (3R,10S,13S)-10,13-dimethyl-17-(pyridin-3-yl)-2,3,4,5,6,7,8,9,10,11,12,13,14,15-tetradecahydro-1H-cyclopenta[a]phenanthren-3-amine], which inhibition at 0.001 µM is on record?
**A.** 10 to 50%

**Q.** How did the inhibition at 0.001 µM turn out when `C[C@]12CC[C@@H](N=[N+]=[N-])CC1CC[C@@H]1[C@@H]2CC[C@]2(C)C(c3cccnc3)=CC[C@@H]12` (stereo partly drawn) [Compound 214b, 3-((3R,10S,13S)-3-azido-10,13-dimethyl-2,3,4,5,6,7,8,9,10,11,12,13,14,15-tetradecahydro-1H-cyclopenta[a]phenanthren-17-yl)pyridine] was run?
**A.** 10 to 50%

**Q.** For `C[C@]12CC[C@@H](NC(=O)C(F)(F)F)CC1CCC1C2CC[C@]2(C)C(c3cccnc3)=CCC12` (stereo partly drawn) [Compound 217, N-((3R,10S,13S)-10,13-dimethyl-17-(pyridin-3-yl)-2,3,4,5,6,7,8,9,10,11,12,13,14,15-tetradecahydro-1H-cyclopenta[a]phenanthren-3-yl)-2,2,2-trifluoroacetamide], which inhibition at 0.001 µM is on record?
**A.** 10 to 50%

**Q.** With `C[C@]12CC[C@@H](NS(C)(=O)=O)CC1=CCC1C2CC[C@]2(C)C(c3cccnc3)=CCC12` (stereo partly drawn) [Compound 225, N-((3R,10R,13S)-10,13-dimethyl-17-(pyridin-3-yl)-2,3,4,7,8,9,10,11,12,13,14,15-dodecahydro-1H-cyclopenta[a]phenanthren-3-yl)methanesulfonamide] as the compound, how does the inhibition at 0.001 µM read?
**A.** 10 to 50%

**Q.** How did the inhibition at 0.001 µM turn out when `C[C@]12CC[C@@H](NC(=O)c3nccs3)CC1=CC[C@@H]1[C@@H]2CC[C@]2(C)C(c3cccnc3)=CC[C@@H]12` [Compound 229, N-((3R,10R,13S)-10,13-dimethyl-17-(pyridin-3-yl)-2,3,4,7,8,9,10,11,12,13,14,15-dodecahydro-1H-cyclopenta[a]phenanthren-3-yl)thiazole-2-carboxamide] was run?
**A.** 10 to 50%

**Q.** With `CCNC(=S)N[C@@H]1CC[C@@]2(C)C(=CC[C@@H]3[C@@H]2CC[C@]2(C)C(c4cccnc4)=CC[C@@H]32)C1` [Compound 233, 1-((3R,10R,13S)-10,13-dimethyl-17-(pyridin-3-yl)-2,3,4,7,8,9,10,11,12,13,14,15-dodecahydro-1H-cyclopenta[a]phenanthren-3-yl)-3-ethylthiourea] as the compound, how does the inhibition at 0.001 µM read?
**A.** 10 to 50%

Same assay, conditions: test compound at 1 nM, read-out: CYP17 enzymatic assay percent inhibition at 1 nM (Biological Example No. 12)

**Q.** With `CCC(=O)O[C@H]1CC[C@@]2(C)C(=CCC3C4=CC=C(c5cccnc5)[C@@]4(C)CCC32)C1` (stereo partly drawn) [Compound 193, (3S,10R,13S)-10,13-dimethyl-17-(pyridin-3-yl)-2,3,4,7,8,9,10,11,12,13-decahydro-1H-cyclopenta[a]phenanthren-3-yl propionate] as the compound, how does the inhibition at 0.001 µM read?
**A.** 10 to 50%

**Q.** For `C[C@]12CCC3C(CC=C4C[C@@H](OC(=O)c5ccccc5)CC[C@@]43C)C1=CC=C2c1cccnc1` (stereo partly drawn) [Compound 194, (3S,10R,13S)-10,13-dimethyl-17-(pyridin-3-yl)-2,3,4,7,8,9,10,11,12,13-decahydro-1H-cyclopenta[a]phenanthren-3-yl benzoate], which inhibition at 0.001 µM is on record?
**A.** 10 to 50%

**Q.** How did the inhibition at 0.001 µM turn out when `CC(C)(C)C(=O)N[C@@H]1CC[C@@]2(C)C(CCC3C2CC[C@]2(C)C(c4cccnc4)=CCC32)C1` (stereo partly drawn) [Compound 218, N-((3R,10S,13S)-10,13-dimethyl-17-(pyridin-3-yl)-2,3,4,5,6,7,8,9,10,11,12,13,14,15-tetradecahydro-1H-cyclopenta[a]phenanthren-3-yl)pivalamide] was run?
**A.** 10 to 50%
